Test results as given in the Kinase Knowledgebase extract (Sharma et al. 2016).
pIC50: −log10 of the molar value.

Biological target: EGFR (UniProt P00533)
Assay: Inhibition of EGFR Kinase Activity

Sequence of EGFR (P00533 whole entry, looked up): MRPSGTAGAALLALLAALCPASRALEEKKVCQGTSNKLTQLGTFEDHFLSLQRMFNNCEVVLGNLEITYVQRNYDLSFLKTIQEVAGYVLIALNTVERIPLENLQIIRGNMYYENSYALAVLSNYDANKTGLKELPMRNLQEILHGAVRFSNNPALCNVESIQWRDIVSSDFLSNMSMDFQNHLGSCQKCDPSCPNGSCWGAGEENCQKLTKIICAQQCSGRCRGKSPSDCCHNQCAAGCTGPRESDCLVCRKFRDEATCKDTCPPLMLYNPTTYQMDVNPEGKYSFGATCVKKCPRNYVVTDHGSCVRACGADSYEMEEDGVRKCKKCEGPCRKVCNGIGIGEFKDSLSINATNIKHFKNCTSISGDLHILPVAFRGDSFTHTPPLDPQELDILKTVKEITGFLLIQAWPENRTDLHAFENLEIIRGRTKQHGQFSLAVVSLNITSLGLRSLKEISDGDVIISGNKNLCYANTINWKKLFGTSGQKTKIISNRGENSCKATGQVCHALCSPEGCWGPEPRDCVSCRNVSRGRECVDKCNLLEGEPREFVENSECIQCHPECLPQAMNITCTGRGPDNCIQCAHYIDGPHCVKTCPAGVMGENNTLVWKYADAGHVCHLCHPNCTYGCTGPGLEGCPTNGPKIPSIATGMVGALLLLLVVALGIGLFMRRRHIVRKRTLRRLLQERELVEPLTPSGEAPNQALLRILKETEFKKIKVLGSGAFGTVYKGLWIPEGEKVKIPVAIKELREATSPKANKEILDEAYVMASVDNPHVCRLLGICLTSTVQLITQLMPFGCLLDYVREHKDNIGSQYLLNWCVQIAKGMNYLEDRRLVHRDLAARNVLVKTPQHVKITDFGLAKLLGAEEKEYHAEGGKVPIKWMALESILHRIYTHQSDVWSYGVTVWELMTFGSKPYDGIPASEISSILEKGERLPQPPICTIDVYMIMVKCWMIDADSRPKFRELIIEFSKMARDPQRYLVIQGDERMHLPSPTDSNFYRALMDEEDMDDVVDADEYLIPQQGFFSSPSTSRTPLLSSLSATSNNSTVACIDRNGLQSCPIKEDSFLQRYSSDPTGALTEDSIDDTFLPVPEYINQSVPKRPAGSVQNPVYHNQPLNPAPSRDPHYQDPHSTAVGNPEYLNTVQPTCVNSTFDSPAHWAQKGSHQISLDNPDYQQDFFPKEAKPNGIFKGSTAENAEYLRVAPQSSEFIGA

| Compound | pIC50 |
| --- | --- |
| COc1ccc(N2C(=O)N([C@H](C)CO)c3nc(Nc4ccccc4)ncc3[C@H]2C)cc1 | > 5.00 |
| COc1ccc(N2C(=O)N(c3cccc(C(N)=O)c3)c3nc(Nc4ccccc4)ncc3C2C)c(F)c1 (configuration not stated) | > 5.00 |
| COc1ccc(N2C(=O)N(c3ccccc3)c3nc(Nc4ccccc4)ncc3[C@@H]2C)cc1 | > 5.00 |
| COc1ccc(N2C(=O)N(c3cccc(C#N)c3)c3nc(Nc4ccccc4)ncc3C2C)cc1 (configuration not stated) | > 5.00 |
| COc1ccc(N2C(=O)N(c3cccc(C(N)=O)c3)c3nc(Nc4ccccc4)ncc3C2C)cc1 (configuration not stated) | > 5.00 |
| COc1ccc(N2C(=O)N([C@H](C)CO)c3nc(Nc4ccccc4)ncc3[C@@H]2C)cc1 | > 5.00 |
| COc1ccc(N2C(=O)N(c3ccccc3)c3nc(Nc4ccccc4)ncc3[C@H]2C)cc1 | > 5.00 |
| CCC1c2cnc(Nc3ccccc3)nc2N(c2ccccc2)C(=O)N1c1ccc(OC)cc1 (configuration not stated) | > 5.00 |
| COc1ccc(Cl)c(N2C(=O)N(c3ccccc3)c3nc(Nc4ccccc4)ncc3C2C)c1 (configuration not stated) | > 5.00 |
| COc1ccc(N2C(=O)N([C@H]3CC[C@H](O)CC3)c3nc(Nc4ccccc4)ncc3C2C)cc1 (some centres not stated) | > 5.00 |
| COc1ccc(N2C(=O)N(c3ccccc3)c3nc(Nc4ccccc4)ncc3C2C(C)C)cc1 (configuration not stated) | > 5.00 |
| COc1ccc(N2C(=O)N(c3ccc(OC)cc3)C(C)c3cnc(Nc4ccccc4)nc32)cc1 (configuration not stated) | > 5.00 |
| COc1ccc(N2C(=O)N(c3ccccc3)c3nc(Nc4ccccc4)ncc3C2C)c(F)c1 (configuration not stated) | > 5.00 |
| COc1ccc(N2C(=O)N([C@@H](C)c3ccccc3)c3nc(Nc4ccccc4)ncc3C2C)cc1 (some centres not stated) | > 5.00 |
| COc1ccc(N2C(=O)N(c3cccc(C#N)c3)c3nc(Nc4ccccc4)ncc3C2C)c(F)c1 (configuration not stated) | > 5.00 |
| COc1ccc(N2C(=O)N(c3ccccc3)c3nc(Nc4ccccc4)ncc3C2C)cc1 (configuration not stated) | > 5.00 |
| COc1ccc(N2C(=O)N(c3ccccc3)c3nc(N(C(C)=O)c4ccccc4)ncc3C2C)cc1 (configuration not stated) | > 5.00 |
